Read-outs that look alike come from different tables or passages of the source.
Assays:
MSCH-induced EAE = MSCH-induced EAE in CSJL/F1 mice (Example 2.8); type: in vivo; design: key to MMS value (Mean Maximal Score) / GMS value (Group Mean Score): EAE clinical score per grading table; 5 = sacrificed or died
Procedure: Disease was induced in all mice by the injection of the encephalitogenic emulsion (MSCH/CFA). The test articles and the vehicle were administered orally twice a day.
For groups 1 and 3 to 6, 360.0 mg MSCH was suspended in 3.0 ml PBS to yield 120 mg/ml MSCH suspension.
0.05 ml was injected into the left foot-pad of each mouse. The concentration of MSCH in emulsion in all groups was 60 mg/mL. The dose of the MSCH in all the groups was 3.0 mg/0.05 ml/mouse. The concentration of MT in emulsion in all groups was 0.25 mg/mL. The dose of the MT in all the groups was 0.0125 mg/0.05 ml/mouse.
36 μL Pertussis toxin (200 μg/ml) was added to 44.964 ml PBS to yield 160 ng/ml. The pertussis toxin was administered intravenous on the day of encephalitogen injection and 48 hours later (80.0 ng/0.5 ml/mouse).
Solutions at concentration of 0.001, 0.01, 0.03 and 0.1 mg/mL laquinimod were prepared in water for dose levels of 0.01, 0.1, 0.3 and 1.0 mg/kg respectively. The test formulations were stored at 2 to 8° C. until use in amber colored bottles.
The mice were administered with the respective dose levels of laquinimod at volume dose level of 200 μL/mouse. The test formulations were vortexed before dispensing in syringe.
The different dose levels laquinimod were administered to the respective groups once a day.
Scoring of EAE clinical signs was initiated from the 10th day post-EAE induction and was continued daily until Day 23. The clinical signs were recorded on observation cards according to a grading system described in the table 23 above. Animals with score 4 for more than three days were given score 5 and sacrificed for humane reasons. For calculation purposes, the score (5) of animals that are sacrificed or died were carried forward.
The calculations are as shown in Example 2.4.

MOG-induced EAE = test: Summary of studies of GA-blocking + laquinimod in MOG-induced EAE (Examples 2.1-2.3); type: in vivo, mice; conditions: Mus musculus, alone or + GA Blocking, read-out: Mean percent inhibition, Examples 2.1-2.3 summarized
Procedure: FIG. 4 is a graphical representation summarizing experimental results from Examples 2.1-2.3.
At higher doses (5 and 25 mg/kg) laquinimod provides an additive effect over GA-blocking as summarized in Table 9 and shown on FIGS. 4A and 4B.

[1] = tested on: relapsing remitting (RR) EAE; test: Relapsing remitting EAE in Biozzi mice, combination study (Example 2.6); type: in vivo; design: MMS value / IMS value: scale not given here; conditions: for inhibition at 5 mg/kg / inhibition at 12.5 mg/kg / inhibition at 25 mg/kg: Mus musculus, 1416 h
Procedure: EAE is an animal model for multiple sclerosis. In the Biozzi AB/H EAE mice, a RR EAE can be induced. […] Re-injection of an encephalitogen can induce a chronic relapsing disease that enables measuring long-term effects on subsequent relapses rather than immediate effects.
The EAE induction was performed according to procedure “RR-EAE.Biozzi” The Biozzi mice were weighed and injected subcutaneously and re-injected one week later with encephalitogenic agent (MSCH emulsion). 0.3 mL of the encephalitogenic agent containing 1.0 mg of MSCH and 200.0 μg of MT was injected subcutaneously, at two sites in the right flank of each mouse (0.15 mL at each site). The second injection was done in a similar manner in the left flank, one week later.
On the day of first injection of encephalotigen, the Biozzi mice were randomly allocated to eight treatment groups as follows: Tables 16-17.
The 5.0 mg/mL laquinimod stock solution was diluted 1:5 to yield 1 mg/mL.
The mice in all the groups were administered daily by oral gavage a volume dose level of […] of the respective test formulations from the day the mice are allocated to the treatment groups (first injection of encephalitogen) for 59 consecutive days until the termination of the study.
The mice were examined and scored according to the following table, until the termination of the study (60 days after initiation of treatment).
The activity of the test articles for the first and second phase of RR EAE was calculated by comparing the incidence of disease, mortality, onset and duration of disease, group mean score and mean maximal score to the control group. Calculations were carried separately and together for the first and the second relapse.

[2] = LAQ 0.01 mg/kg daily, orally by gavage
[3] = LAQ 0.1 mg/kg daily, orally by gavage
[4] = LAQ 0.3 mg/kg daily, orally by gavage
[5] = LAQ 1.0 mg/kg daily, orally by gavage
[6] = laquinimod 0.1 mg/kg/day oral, alone or + GA 0.5 mg/kg
[7] = first and second attacks together, laquinimod 5.0 mg/kg oral daily 59 d, alone or + GA 12.5 mg/kg oral
[8] = first and second attacks together, laquinimod 12.5 mg/kg oral daily 59 d
[9] = first and second attacks together, laquinimod 25.0 mg/kg oral daily 59 d, alone or + GA 12.5 mg/kg oral
[10] = first attack, LAQ 5.0 mg/kg oral daily, alone or + GA 12.5 mg/kg oral
[11] = first attack, LAQ 12.5 mg/kg oral daily
[12] = first attack, LAQ 25.0 mg/kg oral daily, alone or + GA 12.5 mg/kg oral
[13] = second attack, LAQ 5.0 mg/kg oral daily, alone or + GA 12.5 mg/kg oral
[14] = second attack, LAQ 12.5 mg/kg oral daily
[15] = second attack, LAQ 25.0 mg/kg oral daily, alone or + GA 12.5 mg/kg oral

Q: What does the source list for `CCN(C(=O)c1c(O)c2c(Cl)cccc2n(C)c1=O)c1ccccc1` [laquinimod]?
A: % Inhibition 1 (according to Incidence) (MSCH-induced EAE; [2]): 0.0%; % Inhibition 2 (according to MMS) (MSCH-induced EAE; [2]): 24.4%; % Inhibition 3 (according to GMS) (MSCH-induced EAE; [2]): 35.3%( ); GMS value (Group Mean Score) (MSCH-induced EAE; [2]): 2.2 ± 1.2; Incidence (MSCH-induced EAE; [2]): 10/11; MMS value (Mean Maximal Score) (MSCH-induced EAE; [2]): 3.4 ± 1.4; Mean Duration (MSCH-induced EAE; [2]): 9.5 days; Mortality (MSCH-induced EAE; [2]): 2/11; Onset (MSCH-induced EAE; [2]): 13.7 days; % Inhibition 1 (according to Incidence) (MSCH-induced EAE; [3]): 90.0%; % Inhibition 2 (according to MMS) (MSCH-induced EAE; [3]): 42.2%; % Inhibition 3 (according to GMS) (MSCH-induced EAE; [3]): 55.9%( ); GMS value (Group Mean Score) (MSCH-induced EAE; [3]): 1.5 ± 1.2; Incidence (MSCH-induced EAE; [3]): 1/11; MMS value (Mean Maximal Score) (MSCH-induced EAE; [3]): 2.6 ± 1.8; Mean Duration (MSCH-induced EAE; [3]): 6.9 days; Mortality (MSCH-induced EAE; [3]): 8/11; Onset (MSCH-induced EAE; [3]): 16.5 days; % Inhibition 1 (according to Incidence) (MSCH-induced EAE; [4]): 30.0%; % Inhibition 2 (according to MMS) (MSCH-induced EAE; [4]): 53.3%; % Inhibition 3 (according to GMS) (MSCH-induced EAE; [4]): 73.5%( ); GMS value (Group Mean Score) (MSCH-induced EAE; [4]): 0.9 ± 0.9; Incidence (MSCH-induced EAE; [4]): 7/11; MMS value (Mean Maximal Score) (MSCH-induced EAE; [4]): 2.1 ± 1.8; Mean Duration (MSCH-induced EAE; [4]): 4.2 days; Mortality (MSCH-induced EAE; [4]): 1/11; Onset (MSCH-induced EAE; [4]): 17.3 days; % Inhibition 1 (according to Incidence) (MSCH-induced EAE; [5]): 90.0%; % Inhibition 2 (according to MMS) (MSCH-induced EAE; [5]): 93.3%; % Inhibition 3 (according to GMS) (MSCH-induced EAE; [5]): 97.1%( ); GMS value (Group Mean Score) (MSCH-induced EAE; [5]): 0.1 ± 0.3; Incidence (MSCH-induced EAE; [5]): 1/11; MMS value (Mean Maximal Score) (MSCH-induced EAE; [5]): 0.3 ± 0.9; Mean Duration (MSCH-induced EAE; [5]): 0.5 days; Mortality (MSCH-induced EAE; [5]): 0/11; Onset (MSCH-induced EAE; [5]): 23.5 days; Incidence (MSCH-induced EAE; laquinimod 0.01 mg/kg/day oral): 91%; activity according to GMS (MSCH-induced EAE; laquinimod 0.01 mg/kg/day oral): 35.3%; activity according to incidence (MSCH-induced EAE; laquinimod 0.01 mg/kg/day oral): 9.1%; duration of disease (MSCH-induced EAE; laquinimod 0.01 mg/kg/day oral): 13.7 ± 3.8 days; onset of disease (MSCH-induced EAE; laquinimod 0.01 mg/kg/day oral): 9.5 ± 3.9 days; activity according to GMS (MSCH-induced EAE; [6]): 55.9%; activity according to incidence (MSCH-induced EAE; [6]): 27.3%; activity according to GMS (MSCH-induced EAE; laquinimod 0.3 mg/kg/day oral): 73.5%; activity according to incidence (MSCH-induced EAE; laquinimod 0.3 mg/kg/day oral): 36.4%; activity (conclusion) (MSCH-induced EAE; laquinimod 1.0 mg/kg as printed, alone or + GA 0.5 mg/kg): 55.9%; activity according to GMS (MSCH-induced EAE; laquinimod 1.0 mg/kg/day oral): 97.1%; activity according to incidence (MSCH-induced EAE; laquinimod 1.0 mg/kg/day oral): 90.9%; inhibition at 2.5 mg/kg (MOG-induced EAE; laquinimod 2.5 mg/kg): 53.6%; inhibition at 5 mg/kg (MOG-induced EAE; laquinimod 5 mg/kg): 57.3%; inhibition at 25 mg/kg (MOG-induced EAE; laquinimod 25 mg/kg): 74.9%; inhibition at 5 mg/kg ([1]; first and second attacks together, laquinimod 5.0 mg/kg oral daily 59 d, alone or + GA 12.5 mg/kg oral, read-out: GMS % inhibition): 21.7%; inhibition at 5 mg/kg ([1]; first and second attacks together, laquinimod 5.0 mg/kg oral daily 59 d, alone or + GA 12.5 mg/kg oral, read-out: Incidence % inhibition): 23.1%; inhibition at 5 mg/kg ([1]; first and second attacks together, laquinimod 5.0 mg/kg oral daily 59 d, alone or + GA 12.5 mg/kg oral, read-out: MMS % inhibition): 16.2%; inhibition at 12.5 mg/kg ([1]; first and second attacks together, laquinimod 12.5 mg/kg oral daily 59 d, read-out: GMS % inhibition): 43.5%; inhibition at 12.5 mg/kg ([1]; first and second attacks together, laquinimod 12.5 mg/kg oral daily 59 d, read-out: Incidence % inhibition): 23.1%; inhibition at 12.5 mg/kg ([1]; first and second attacks together, laquinimod 12.5 mg/kg oral daily 59 d, read-out: MMS % inhibition): 22.2%; inhibition at 25 mg/kg ([1]; first and second attacks together, laquinimod 25.0 mg/kg oral daily 59 d, alone or + GA 12.5 mg/kg oral, read-out: GMS % inhibition): 30.4%; inhibition at 25 mg/kg ([1]; first and second attacks together, laquinimod 25.0 mg/kg oral daily 59 d, alone or + GA 12.5 mg/kg oral, read-out: Incidence % inhibition): 30.8%; inhibition at 25 mg/kg ([1]; first and second attacks together, laquinimod 25.0 mg/kg oral daily 59 d, alone or + GA 12.5 mg/kg oral, read-out: MMS % inhibition): 27.8%; GMS value [1, 7]: 1.8; Incidence [1, 7]: 10/14; MMS value [1, 7]: 3.1; Mean Duration [1, 7]: 26.5 ± 17.0 days; Mortality [1, 7]: 0/14; GMS value [1, 8]: 1.3; Incidence [1, 8]: 10/14; MMS value [1, 8]: 2.8; Mean Duration [1, 8]: 17.5 ± 14.0 days; Mortality [1, 8]: 0/14; GMS value [1, 9]: 1.6; Incidence [1, 9]: 9/14; MMS value [1, 9]: 2.6; Mean Duration [1, 9]: 23.0 ± 16.4 days; Mortality [1, 9]: 0/14; IMS value [1, 10]: 42.9 ± 29.8; Incidence [1, 10]: 10/14; MMS % Inhibition 2 [1, 10]: 19.4%; MMS value [1, 10]: 2.9 ± 1.9; Mean Duration [1, 10]: 15.4 ± 10.9 days; Mortality [1, 10]: 0/14; IMS % Inhibition 3 ([1]; first attack, LAQ 5.0 mg/kg oral daily, alone or + GA 12.5 mg/kg oral, listed as LAQ): 15.6%; IMS % Inhibition 3 [1, 11]: 53.3%; IMS value [1, 11]: 32.4 ± 24.9; Incidence [1, 11]: 10/14; MMS % Inhibition 2 [1, 11]: 25.0%; MMS value [1, 11]: 2.7 ± 1.9; Mean Duration [1, 11]: 9.6 ± 8.6 days; Mortality [1, 11]: 0/14; IMS % Inhibition 3 [1, 12]: 42.8%; IMS value [1, 12]: 39.7 ± 32.3; Incidence [1, 12]: 9/14; MMS value [1, 12]: 2.6 ± 2.0; Mean Duration [1, 12]: 13.9 ± 10.0 days; Mortality [1, 12]: 0/14; % Inhibition 1 (incidence) [1, 13]: 1.8%; IMS % Inhibition 3 [1, 13]: 18.4%; IMS value [1, 13]: 38.6 ± 28.5; Incidence [1, 13]: 10/14; MMS % Inhibition 2 [1, 13]: 3.4%; MMS value [1, 13]: 2.8 ± 1.8; Mean Duration [1, 13]: 11.4 ± 11.5 days; Mortality [1, 13]: 0/14; % Inhibition 1 (incidence) [1, 14]: 11.6%; IMS % Inhibition 3 [1, 14]: 41.4%; IMS value [1, 14]: 27.7 ± 23.1; Incidence [1, 14]: 9/14; MMS % Inhibition 2 [1, 14]: 13.8%; MMS value [1, 14]: 2.5 ± 2.0; Mean Duration [1, 14]: 7.9 ± 6.5 days; Mortality [1, 14]: 0/14; % Inhibition 1 (incidence) [1, 15]: 21.5%; IMS % Inhibition 3 [1, 15]: 29.2%; IMS value [1, 15]: 33.5 ± 32.2; Incidence [1, 15]: 8/14; MMS % Inhibition 2 [1, 15]: 20.7%; MMS value [1, 15]: 2.3 ± 2.1; Mean Duration [1, 15]: 9.1 ± 8.6 days; Mortality [1, 15]: 0/14

Reference: US20160038532A1, “Treatment of Multiple Sclerosis With Combination of Laquinimod and Glatiramer Acetate” (TEVA PHARMACEUTICAL INDUSTRIES, LTD., priority 2011, published 2016)
